From US20260049084A1, “ENPP1 MODULATORS AND PRODUCTS AND USES THEREOF” (Gossamer Bio Services, Inc., priority 2022, published 2026)

What was measured:
[1] = target: Recombinant human ENPP1 protein (Homo sapiens (Human), UniProt P22413); test: ENPP1 cGAMP Biochemical Assay; conditions: 0.5 nM ENPP1, 1000 nM 2′3′-cGAMP substrate, TR-FRET
Method: ENPP1 cGAMP Biochemical Assay
Compounds were added to 384 well Proxiplate (PerkinElmer, Waltham MA) at 100 nl/well from DMSO stocks using Echo (Labcyte, San Jose CA). Recombinant human ENPP1 protein (R&D Systems, Minneapolis MN) was prepared in assay buffer (50 mM Tris pH7.5, 1 mM TCEP pH7.0, 2 mM MgCl2 and 0.005% Tween20) and added at 10 μl/well. The plate was sealed, centrifuged at 1000 rpm for 1 minute and incubated at room temperature for 30 minutes before 5 μl substrate 2′3′-cGAMP (R&D Systems, Minneapolis MN) in assay buffer was added to each well to a final concentration of 0.5 nM ENPP1 and 1000 nM 2′3′-cGAMP. The plate was sealed and centrifuged at 1000 rpm for 1 minute again. After incubation at 25° C. for 60 minutes, Terbium labelled AMP/GMP antibody and AMP/GMP HiLyte647 Tracer (BellBrook Labs, Fitchburg WI) in detection buffer (50 mM Tris pH7.5, 20 mM EDTA and 0.1% Prionex) were added to the reaction mixture to a final concentration of 2 nM (5 μl/well). The assay plate was incubated at room temperature for 120 minutes. TR-FRET signal was detected using Envision (PerkinElmer, Waltham MA).

[2] = target: carbonic anhydrase I enzyme (Homo sapiens (Human), UniProt P00915); test: Carbonic Anhydrase 1 Enzymatic Assay; format: biochemical; conditions: enzyme from human erythrocyte, 500 μM 4-nitrophenyl acetate, absorbance 400 nm; read-out: CA I IC50
Chain of carbonic anhydrase I enzyme (P00915 whole entry): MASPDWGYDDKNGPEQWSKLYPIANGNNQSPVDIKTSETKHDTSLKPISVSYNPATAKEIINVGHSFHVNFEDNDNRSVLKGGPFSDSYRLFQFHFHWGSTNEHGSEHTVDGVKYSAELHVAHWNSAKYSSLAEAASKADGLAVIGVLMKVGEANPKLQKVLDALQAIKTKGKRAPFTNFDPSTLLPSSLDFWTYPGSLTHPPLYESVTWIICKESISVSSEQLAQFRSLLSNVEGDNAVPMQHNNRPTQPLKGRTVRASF
Method: Carbonic Anhydrase 1 Enzymatic Assay
(§1) Test compound and/or vehicle was preincubated with carbonic anhydrase I enzyme (15 μg/ml) isolated from human erythrocyte in reaction buffer (50 mM MOPS solution pH 7.5) for 15 minutes at 25° C. The reaction was initiated by addition of 500 μM 4-nitrophenyl acetate and incubated for 30 minutes. The plate was read on a spectrophotometer (Absorbance: 400 nm)

[3] = target: Recombinant human ENPP3 protein (Homo sapiens (Human), UniProt O14638); test: ENPP3 cGAMP Biochemical Assay; conditions: 70.5 nM ENPP3, 120 μM 2′3′-cGAMP substrate, TR-FRET
Chain of Recombinant human ENPP3 protein (O14638 whole entry): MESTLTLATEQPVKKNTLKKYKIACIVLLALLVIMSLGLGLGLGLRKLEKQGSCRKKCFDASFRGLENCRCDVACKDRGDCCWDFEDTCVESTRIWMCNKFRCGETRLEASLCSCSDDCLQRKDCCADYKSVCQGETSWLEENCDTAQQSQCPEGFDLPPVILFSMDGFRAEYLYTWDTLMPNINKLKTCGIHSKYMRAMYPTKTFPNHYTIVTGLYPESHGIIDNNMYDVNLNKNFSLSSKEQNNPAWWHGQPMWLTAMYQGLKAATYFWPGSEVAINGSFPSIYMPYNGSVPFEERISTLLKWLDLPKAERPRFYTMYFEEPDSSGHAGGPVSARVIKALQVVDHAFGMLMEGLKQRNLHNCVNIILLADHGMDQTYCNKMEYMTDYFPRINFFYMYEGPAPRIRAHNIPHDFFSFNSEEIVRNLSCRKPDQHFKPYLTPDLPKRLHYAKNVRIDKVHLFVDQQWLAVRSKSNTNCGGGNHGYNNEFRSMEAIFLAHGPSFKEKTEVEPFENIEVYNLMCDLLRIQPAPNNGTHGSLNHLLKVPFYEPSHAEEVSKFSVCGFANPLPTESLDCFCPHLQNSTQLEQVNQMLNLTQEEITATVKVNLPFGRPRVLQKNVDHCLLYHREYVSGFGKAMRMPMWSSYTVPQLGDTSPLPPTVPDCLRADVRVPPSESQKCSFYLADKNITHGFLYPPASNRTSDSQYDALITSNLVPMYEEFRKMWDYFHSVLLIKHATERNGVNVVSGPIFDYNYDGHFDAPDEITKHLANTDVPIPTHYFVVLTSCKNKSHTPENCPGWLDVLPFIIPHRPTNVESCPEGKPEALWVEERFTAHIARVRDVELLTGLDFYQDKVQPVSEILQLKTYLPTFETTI
Method: ENPP3 cGAMP Biochemical Assay
Compounds were added to 384 well Proxiplate (PerkinElmer, Waltham MA) at 100 nl/well from DMSO stocks using Echo (Labcyte, San Jose CA). Recombinant human ENPP3 protein (Acro Biosystems, Newwark DE) was prepared in assay buffer (50 mM Tris pH7.5, 1 mM TCEP pH7.0, 2 mM MgCl2, 2 mM CaCl2), 2 mM ZnCl2 and 0.005% Tween20) and added at 2 μl/well. The plate was sealed, centrifuged at 1000 rpm for 1 minute and incubated at room temperature for 30 minutes before 2 μl substrate 2′3′-cGAMP (R&D Systems, Minneapolis MN) in assay buffer was added to each well to a final concentration of 70.5 nM ENPP3 and 120 μM 2′3′-cGAMP. The plate was sealed and centrifuged at 1000 rpm for 1 minute again. After incubation at 25° C. for 60 minutes, Terbium labelled AMP/GMP antibody and AMP/GMP HiLyte647 Tracer (BellBrook Labs, Fitchburg WI) in detection buffer (50 mM Tris pH7.5, 20 mM EDTA and 0.1% Prionex) were added to the reaction mixture to a final concentration of 475 nM and 3 nM respectively. The assay plate was incubated at room temperature for 120 minutes. TR-FRET signal was detected using Envision (PerkinElmer, Waltham MA).

[4] = target: carbonic anhydrase II enzyme (Homo sapiens (Human), UniProt P00918); test: Carbonic Anhydrase 2 Enzymatic Assay; format: biochemical; conditions: enzyme from human erythrocyte, 500 μM 4-nitrophenyl acetate, absorbance 400 nm; read-out: CA II IC50
Method: Carbonic Anhydrase 2 Enzymatic Assay
as §1, with “II” for “I”

Chain of Recombinant human ENPP1 protein (P22413 whole entry): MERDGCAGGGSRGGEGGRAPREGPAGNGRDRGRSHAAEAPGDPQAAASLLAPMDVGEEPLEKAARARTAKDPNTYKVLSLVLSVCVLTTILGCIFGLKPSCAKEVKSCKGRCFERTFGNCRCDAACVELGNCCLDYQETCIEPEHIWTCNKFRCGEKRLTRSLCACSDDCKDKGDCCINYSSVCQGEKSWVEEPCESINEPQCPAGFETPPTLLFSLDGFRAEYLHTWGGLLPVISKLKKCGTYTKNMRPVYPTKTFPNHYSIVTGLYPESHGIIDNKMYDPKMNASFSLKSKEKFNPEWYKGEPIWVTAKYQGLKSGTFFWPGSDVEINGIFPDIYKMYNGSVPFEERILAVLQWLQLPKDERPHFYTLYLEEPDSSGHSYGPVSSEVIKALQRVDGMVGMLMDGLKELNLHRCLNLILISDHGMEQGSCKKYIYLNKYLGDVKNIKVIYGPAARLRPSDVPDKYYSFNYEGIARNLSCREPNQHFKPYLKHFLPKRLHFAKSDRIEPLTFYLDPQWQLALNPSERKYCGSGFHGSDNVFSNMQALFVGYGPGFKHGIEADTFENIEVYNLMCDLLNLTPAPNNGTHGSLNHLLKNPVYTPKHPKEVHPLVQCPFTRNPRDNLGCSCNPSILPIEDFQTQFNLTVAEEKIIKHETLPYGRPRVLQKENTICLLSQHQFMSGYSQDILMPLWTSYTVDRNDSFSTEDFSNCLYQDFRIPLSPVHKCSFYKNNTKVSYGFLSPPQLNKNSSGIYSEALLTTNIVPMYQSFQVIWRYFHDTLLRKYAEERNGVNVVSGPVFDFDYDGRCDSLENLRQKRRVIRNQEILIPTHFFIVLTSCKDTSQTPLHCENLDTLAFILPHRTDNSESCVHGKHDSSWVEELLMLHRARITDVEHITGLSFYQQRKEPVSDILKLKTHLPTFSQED

CCn1ncc2c(NCc3ccc(S(=N)(N)=O)cc3)ccnc21 (centres unmarked) [Compound 2A, 4-(((1-ethyl-1H-pyrazolo[3,4-b]pyridin-4-yl)amino)methyl)benzene sulfonimidamide]
IC50 [1]: 10 to 100 nM
IC50 [2]: 100 to 1000 nM
IC50 [3]: ≥ 1000 nM
IC50 [4]: ≥ 1000 nM

CCn1ncc2c(NCC3CCN(S(C)(=N)=O)CC3)ccnc21 (centres unmarked) [Compound 4A, 1-ethyl-N-((1-(S-methylsulfonimidoyl)piperidin-4-yl)methyl)-1H-pyrazolo[3,4-b]pyridin-4-amine]
IC50 [2]: ≥ 1000 nM
IC50 [3]: ≥ 1000 nM
IC50 [4]: ≥ 1000 nM

CCn1nc(Cl)c2c(NCC3CCN(S(=N)(=O)CCC#N)CC3)ccnc21 (centres unmarked) [Compound 14E, 3-(4-(((3-chloro-1-ethyl-1H-pyrazolo[3,4-b]pyridin-4-yl)amino)methyl)piperidine-1-sulfonimidoyl)propanenitrile]
IC50 [1]: 10 to 100 nM
IC50 [2]: ≥ 1000 nM
IC50 [3]: ≥ 1000 nM
IC50 [4]: ≥ 1000 nM

CCn1nc(Br)c2c(NCc3ccc(S(=N)(N)=O)cc3)ccnc21 (centres unmarked) [Compound 2B, 4-(((3-bromo-1-ethyl-1H-pyrazolo[3,4-b]pyridin-4-yl)amino)methyl)benzenesulfonimidamide]
IC50 [1]: 10 to 100 nM
IC50 [2]: 10 to 100 nM
IC50 [3]: 100 to 1000 nM
IC50 [4]: ≥ 1000 nM

CCn1ncc2c(NCc3ccc(S(N)(=O)=NC)cc3)ccnc21 (centres unmarked) [Compound 3A, 4-(((1-ethyl-1H-pyrazolo[3,4-b]pyridin-4-yl)amino)methyl)-N′-methylbenzenesulfonimidamide]
IC50 [1]: 100 to 1000 nM
IC50 [2]: ≥ 1000 nM
IC50 [3]: ≥ 1000 nM
IC50 [4]: ≥ 1000 nM

CCn1ncc2c(Oc3ccc(S(N)(=O)=NCC4CC4)cc3)ccnc21 (centres unmarked) [Compound 16A, N′-(cyclopropylmethyl)-4-((1-ethyl-1H-pyrazolo [3,4-b]pyridin-4-yl)oxy)benzenesulfonimidamide]
IC50 [1]: ≥ 1000 nM
IC50 [3]: ≥ 1000 nM

C#CCn1nc(Cl)c2c(NCc3ccc([S@](C)(=N)=O)cc3)ccnc21 [Compound 6A, (R)-(4-(((3-chloro-1-(prop-2-yn-1-yl)-1H-pyrazolo[3,4-b]pyridin-4-yl)amino)methyl)phenyl)(imino)(methyl)-λ^6-sulfanone]
IC50 [1]: 10 to 100 nM
IC50 [3]: ≥ 1000 nM

CCn1nc(Cl)c2c(NCc3ccc(S(N)(=O)=NC#N)cc3)ccnc21 (centres unmarked) [Compound 12F, 4-(((3-chloro-1-ethyl-1H-pyrazolo[3,4-b]pyridine-4-yl)amino)methyl)-N′-cyano benzenesulfonimidamide]
IC50 [1]: < 10 nM
IC50 [3]: 10 to 100 nM

CCn1nc(Cl)c2c(NCC3CCN([S@](=N)(=O)CCOC)CC3)ccnc21 [Compound 14D, (S)-3-chloro-1-ethyl-N-((1-(2-methoxyethylsulfonimidoyl)piperidin-4-yl)methyl)-1H-pyrazolo[3,4-b]pyridin-4-amine]
IC50 [1]: 10 to 100 nM
IC50 [3]: ≥ 1000 nM

C#CCn1nc(Cl)c2c(NCC3CCN([S@@](C)(=N)=O)CC3)ccnc21 [Compound 13C, (R)-3-chloro-N-((1-(S-methylsulfonimidoyl)piperidin-4-yl)methyl)-1-(prop-2-yn-1-yl)-1H-pyrazolo[3,4-b]pyridin-4-amine]
IC50 [1]: < 10 nM
IC50 [3]: ≥ 1000 nM

CN[S@](=N)(=O)c1ccc(CNc2ccnc3c2c(Cl)nn3CC#N)cc1 [Compound 10E, (S)-4-(((3-chloro-1-(cyanomethyl)-1H-pyrazolo[3,4-b]pyridin-4-yl)amino)methyl)-N-methylbenzenesulfonimidamide]
IC50 [1]: < 10 nM
IC50 [3]: 100 to 1000 nM

CCn1ncc2c(NCc3ccc(S(N)(=O)=NC#N)cc3)ccnc21 (centres unmarked) [Compound 12G, N′-cyano-4-(((1-ethyl-1H-pyrazolo[3,4-b]pyridin-4-yl)amino)methyl)benzenesulfonimidamide]
IC50 [2]: ≥ 1000 nM
IC50 [3]: 100 to 1000 nM
IC50 [4]: ≥ 1000 nM

CCn1nc(Cl)c2c(Nc3ccc(S(N)(=O)=NC)cc3)ccnc21 (centres unmarked) [Compound 5D, 4-((3-chloro-1-ethyl-1H-pyrazolo[3,4-b]pyridin-4-yl)amino)-N′-methylbenzenesulfonimidamide]
IC50 [1]: < 10 nM
IC50 [3]: 100 to 1000 nM

C#CCn1nc(Cl)c2c(NCC3CCN([S@@](C)(=O)=NC#N)CC3)ccnc21 [Compound 14I, (S)-N-((4-(((3-chloro-1-(prop-2-yn-1-yl)-1H-pyrazolo[3,4-b]pyridin-4-yl)amino)methyl)piperidin-1-yl)(methyl)(oxo)-λ6-sulfaneylidene)cyanamide]
IC50 [1]: < 10 nM
IC50 [3]: ≥ 1000 nM

CCn1nc(Cl)c2c(NCc3ccc([S@@](N)(=O)=NC)cc3)ccnc21 [Compound 12C, (S)-4-(((3-chloro-1-ethyl-1H-pyrazolo[3,4-b]pyridin-4-yl)amino)methyl)-N′-methyl benzenesulfonimidamide]
IC50 [1]: 10 to 100 nM
IC50 [3]: ≥ 1000 nM

C#CCn1nc(Cl)c2c(NCc3c(F)cc(S(N)(=O)=NC)cc3F)ccnc21 (centres unmarked) [Compound 3B, 4-(((3-chloro-1-(prop-2-yn-1-yl)-1H-pyrazolo[3,4-b]pyridin-4-yl)amino)methyl)-3,5-difluoro-N-methylbenzenesulfonimidamide]
IC50 [1]: < 10 nM
IC50 [3]: 100 to 1000 nM

CCn1nc(Cl)c2c(NCC3CCN([S@](C)(=N)=O)CC3)ccnc21 [Compound 13H, (S)-3-chloro-1-ethyl-N-((1-(S-methylsulfonimidoyl)piperidin-4-yl)methyl)-1H-pyrazolo[3,4-b]pyridin-4-amine]
IC50 [1]: 10 to 100 nM
IC50 [3]: ≥ 1000 nM

C[S@](=N)(=O)N1CCC(CNc2ccnc3c2c(Cl)nn3CC#N)CC1 [Compound 13F, (R)-2-(3-chloro-4-(((1-(S-methylsulfonimidoyl)piperidin-4-yl)methyl)amino)-1H-pyrazolo[3,4-b]pyridin-1-yl)acetonitrile]
IC50 [1]: 100 to 1000 nM
IC50 [3]: ≥ 1000 nM

C[S@@](=N)(=O)N1CCC(CNc2ccnc3c2c(Cl)nn3CC#N)CC1 [Compound 13E, (S)-2-(3-chloro-4-(((1-(S-methylsulfonimidoyl)piperidin-4-yl)methyl)amino)-1H-pyrazolo[3,4-b]pyridin-1-yl)acetonitrile]
IC50 [1]: < 10 nM
IC50 [3]: 10 to 100 nM

C#CCn1nc(Cl)c2c(NCc3ccc(S(N)(=O)=NC)cc3)ccnc21 (centres unmarked) [Compound 12A, 4-(((3-chloro-1-(prop-2-yn-1-yl)-1H-pyrazolo[3,4-b]pyridin-4-yl)amino)methyl)-N′-methylbenzenesulfonimidamide]
IC50 [1]: < 10 nM
IC50 [3]: 10 to 100 nM

CCn1ncc2c(Nc3ccc(S(N)(=O)=NC)cc3)ccnc21 (centres unmarked) [Compound 5B, 4-((1-ethyl-1H-pyrazolo[3,4-b]pyridin-4-yl)amino)-N′-methylbenzenesulfonimidamide]
IC50 [1]: 10 to 100 nM
IC50 [3]: ≥ 1000 nM

CCn1nc(Cl)c2c(NCC3CCN(S(=N)(N)=O)CC3)ccnc21 (centres unmarked) [Compound 1C, 4-(((3-chloro-1-ethyl-1H-pyrazolo[3,4-b]pyridin-4-yl)amino)methyl)piperidine-1-sulfonimidamide]
IC50 [1]: 10 to 100 nM
IC50 [3]: ≥ 1000 nM

CS(=N)(=O)N1CCC(CNc2ccnc3c2c(Cl)nn3CC#N)CC1 (centres unmarked) [Compound 13D, 2-(3-chloro-4-(((1-(S-methylsulfonimidoyl)piperidin-4-yl)methyl)amino)-1H-pyrazolo[3,4-b]pyridin-1-yl)acetonitrile]
IC50 [1]: < 10 nM
IC50 [3]: 10 to 100 nM
